From patent publication US9193728B2, “Fused tetracyclic pyrido [4,3-B] indole and pyrido [3,4-B] indole derivatives and methods of use” (Medivation Technologies, Inc., priority 2010, dated 2015)

Experiments:
[1] = target: T1, human recombinant histamine H1 receptor (Homo sapiens, UniProt P35367); assay: Histamine H1 radioligand binding ([3H]Pyrilamine); conditions: 1.2 nM [3H]Pyrilamine; for inhibition at 0.1 µM / Histamine Binding (0.1 μM) H1, percentage inhibition: compound at 0.1 μM; for inhibition at 0.1 µM: read-out: Histamine Binding (0.1 μM) H1, percentage inhibition
T1 construct: expressed in transfected cells; host or cells: CHO-K1
T1 sequence (P35367 whole entry): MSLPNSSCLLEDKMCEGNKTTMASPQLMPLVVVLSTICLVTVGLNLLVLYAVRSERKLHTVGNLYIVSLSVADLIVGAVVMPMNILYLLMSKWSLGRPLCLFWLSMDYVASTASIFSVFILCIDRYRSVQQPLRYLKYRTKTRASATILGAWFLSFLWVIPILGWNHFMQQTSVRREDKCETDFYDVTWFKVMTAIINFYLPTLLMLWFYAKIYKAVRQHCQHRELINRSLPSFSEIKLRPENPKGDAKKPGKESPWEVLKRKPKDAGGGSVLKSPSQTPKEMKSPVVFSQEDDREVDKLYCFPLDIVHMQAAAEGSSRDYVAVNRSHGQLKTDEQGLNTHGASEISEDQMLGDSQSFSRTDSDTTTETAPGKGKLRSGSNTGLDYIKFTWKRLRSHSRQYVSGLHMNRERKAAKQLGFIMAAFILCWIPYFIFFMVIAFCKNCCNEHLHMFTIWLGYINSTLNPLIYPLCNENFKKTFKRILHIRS
Experimental: To evaluate in radioligand binding assays the activity of compounds of the invention, human recombinant histamine H1 receptor expressed in Chinese hamster ovary (CHO) K1 cells (De Backer, M. et al, Biochem. Biophys. Res. Comm. 197(3):1601, 1993) in a modified Tris-HCl buffer (50 mM Tris-HCl, pH 7.4, 2 mM MgCl2, 100 mM NaCl, 250 mM Sucrose) was used. Compounds of the invention were incubated with 1.2 nM [^3H]Pyrilamine for 180 min. at 25° C. Non-specific binding was estimated in the presence of 1 μM Pyrilamine. Receptor proteins were filtered and washed, the filters were then counted to determine [^3H]Pyrilamine specifically bound. Compounds were screened at 1 μM or lower, using 1% DMSO as vehicle. Biochemical assay results are presented as the percent inhibition of specific binding in Table 2.

[2] = target: T2, human recombinant serotonin (5-Hydroxytryptamine) 5-HT7 receptor (Homo sapiens, UniProt P34969); assay: Serotonin 5-HT7 radioligand binding ([3H]LSD); conditions: for inhibition at 0.1 µM / Serotonin (0.1 μM) 5-HT7, percentage inhibition of ligand binding: compound at 0.1 μM; for inhibition at 0.1 µM: read-out: Serotonin (0.1 μM) 5-HT7, percentage inhibition of ligand binding
T2 construct: expressed in transfected cells; host or cells: CHO
T2 sequence (P34969 whole entry): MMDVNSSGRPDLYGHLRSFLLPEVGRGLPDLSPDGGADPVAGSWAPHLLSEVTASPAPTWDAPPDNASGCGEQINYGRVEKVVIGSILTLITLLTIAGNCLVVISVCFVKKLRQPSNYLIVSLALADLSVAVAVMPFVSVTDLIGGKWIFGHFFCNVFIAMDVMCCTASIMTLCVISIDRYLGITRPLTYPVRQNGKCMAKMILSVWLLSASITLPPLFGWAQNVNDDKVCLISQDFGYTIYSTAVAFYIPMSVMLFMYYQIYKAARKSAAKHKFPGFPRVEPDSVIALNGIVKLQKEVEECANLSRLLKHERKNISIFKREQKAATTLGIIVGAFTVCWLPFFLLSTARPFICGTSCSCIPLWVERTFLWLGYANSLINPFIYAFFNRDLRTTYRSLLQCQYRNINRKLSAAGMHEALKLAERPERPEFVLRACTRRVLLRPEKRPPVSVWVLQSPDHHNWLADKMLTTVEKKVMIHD
Experimental: To evaluate in radioligand binding assays the activity of compounds of the invention, human recombinant serotonin (5-Hydroxytryptamine) 5-HT7 receptor expressed in Chinese hamster ovary (CHO) cells (Roth, B. et al, J. Pharmacol. Exp. Ther. 268:1403, 1994; Shen, Y. et al, J. Biol. Chem. 268:18200, 1993) in a modified Tris-HCl buffer (50 mM Tris-HCl, pH 7.4, 10 mM MgCl2, 0.5 mM EDTA) was used. Compounds of invention were incubated with 5.5 nM [^3H]Lysergic acid diethylamide (LSD) for 120 min. at 25° C. Non-specific binding was estimated in the presence of 10 μM Serotonin (5-HT). Receptor proteins were filtered and washed, the filters were then counted to determine [^3H]LSD specifically bound. Compounds were screened at 1 μM or lower, using 1% DMSO as vehicle. Biochemical assay results are presented as the percent inhibition of specific binding in Table 4.

[3] = target: T3, human recombinant adrenergic α2C receptor (Homo sapiens, UniProt P18825); assay: Adrenergic α2C radioligand binding ([3H]MK-912); conditions: compound at 0.1 μM; for inhibition at 0.1 µM: read-out: Adrenergic (0.1 μM) a2C, percentage inhibition of ligand binding
T3 construct: expressed in transfected cells; host or cells: insect Sf9 cells
T3 sequence (P18825 1-462): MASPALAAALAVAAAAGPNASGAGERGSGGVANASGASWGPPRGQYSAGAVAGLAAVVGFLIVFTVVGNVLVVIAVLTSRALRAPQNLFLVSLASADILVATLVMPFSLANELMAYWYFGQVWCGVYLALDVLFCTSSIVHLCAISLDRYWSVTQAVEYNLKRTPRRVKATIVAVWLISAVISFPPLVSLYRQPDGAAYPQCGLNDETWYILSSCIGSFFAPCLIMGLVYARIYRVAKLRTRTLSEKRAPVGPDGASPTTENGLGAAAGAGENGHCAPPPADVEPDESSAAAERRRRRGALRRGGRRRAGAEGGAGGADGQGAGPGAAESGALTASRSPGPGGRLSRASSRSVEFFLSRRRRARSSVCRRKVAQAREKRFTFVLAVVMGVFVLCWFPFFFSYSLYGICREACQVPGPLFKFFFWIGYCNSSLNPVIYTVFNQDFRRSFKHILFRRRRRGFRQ
Experimental: To evaluate in radioligand binding assays the activity of compounds of the invention, human recombinant adrenergic α2C receptor expressed in insect Sf9 cells (Uhlen, S. et al, J. Pharmacol. Exp. Ther. 271:1558, 1994) in a modified Tris-HCl buffer (50 mM Tris-HCl, pH 7.4, 12.5 mM MgCl2, 2 mM EDTA) was used. Compounds of the invention were incubated with 1 nM [^3H]MK-912 for 60 min. at 25° C. Non-specific binding was estimated in the presence of 10 μM WB-4101. Receptor proteins were filtered and washed, the filters were then counted to determine [^3H]MK-912 specifically bound. Compounds were screened at 1 μM or lower, using 1% DMSO as vehicle. Biochemical assay results are presented as the percent inhibition of specific binding in Table 3.

[4] = target: T4, rat adrenergic α1A receptor (Rattus norvegicus, UniProt P43140); assay: Adrenergic α1A radioligand binding ([3H]Prazosin); conditions: compound at 0.1 μM; for inhibition at 0.1 µM: read-out: Adrenergic (0.1 μM) a1A, percentage inhibition of ligand binding
T4 construct: rat adrenergic α1A receptor obtained from Wistar Rat submaxillary glands; from tissue; host or cells: Wistar rat submaxillary glands
T4 sequence (P43140 1-466): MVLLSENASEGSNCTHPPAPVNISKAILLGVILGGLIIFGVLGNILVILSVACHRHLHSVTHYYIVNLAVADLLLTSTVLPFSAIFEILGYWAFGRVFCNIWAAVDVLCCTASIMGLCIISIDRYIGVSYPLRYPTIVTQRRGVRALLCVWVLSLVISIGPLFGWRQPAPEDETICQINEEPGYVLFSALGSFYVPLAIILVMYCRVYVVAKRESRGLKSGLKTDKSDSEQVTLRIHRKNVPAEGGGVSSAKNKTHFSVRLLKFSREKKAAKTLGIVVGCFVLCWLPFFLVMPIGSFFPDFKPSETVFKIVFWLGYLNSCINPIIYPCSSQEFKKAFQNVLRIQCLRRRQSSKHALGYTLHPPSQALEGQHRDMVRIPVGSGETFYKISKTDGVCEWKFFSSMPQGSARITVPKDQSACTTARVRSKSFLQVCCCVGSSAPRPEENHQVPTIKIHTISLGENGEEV
Experimental: To evaluate in radioligand binding assays the activity of compounds of the invention, rat adrenergic α1A receptor obtained from Wistar Rat submaxillary glands (Michel, A. et al, Br. J. Pharmacol. 98:883, 1989) in a modified Tris-HCl buffer (50 mM Tris-HCl buffer, pH 7.4, 0.5 mM EDTA) was used. Compounds of the invention were incubated with 0.25 nM [^3H]Prazosin for 60 min. at 25° C. Non-specific binding was estimated in the presence of 10 μM phentolamine. Receptor proteins were filtered and washed, the filters were then counted to determine [^3H]Prazosin specifically bound. Compounds of the invention were screened at 1 μM or lower, using 1% DMSO as vehicle. Biochemical assay results are presented as the percent inhibition of specific binding in Table 3.

Row | SMILES | inhibition at 0.1 µM [1] [%] | inhibition at 1 µM ([1]; compound at 1 μM, read-out: Histamine Binding (1 μM) H1, percentage inhibition) [%] | inhibition at 1 µM ([2]; compound at 1 μM, read-out: Serotonin (1 μM) 5-HT7, percentage inhibition of ligand binding) [%] | inhibition at 0.1 µM [3] [%] | inhibition at 0.1 µM [4] [%] | inhibition at 0.1 µM [2] [%] | Histamine Binding (0.1 μM) H1, percentage inhibition [1] [%] | Adrenergic (0.1 μM) a2C, percentage inhibition of ligand binding [3] [%] | Adrenergic (0.1 μM) a1A, percentage inhibition of ligand binding [4] [%] | Serotonin (0.1 μM) 5-HT7, percentage inhibition of ligand binding [2] [%]
1 | Cc1cc2c3c(c1)c1c(n3CC(c3ccc(F)cc3)C2)CCN(C)C1 (stereo not drawn) [Compound 3] | 49 | 83 | 53 |  |  |  |  |  |  | 
2 | Cc1cc2c3c(c1)c1c(n3CC(C)(c3ccc(C)nc3)OC(C)C2)CCN(C)C1 (stereo not drawn) [Compound 160] | 0 |  |  | 16 | -5 | 14 |  |  |  | 
3 | Cc1cc2c3c(c1)c1c(n3CC(C)(c3ccc(C)nc3)OC2C)CCN(C)C1 (stereo not drawn) [Compound 161] |  |  |  |  |  |  | 13 | 3 | −8 | −8
4 | Cc1cc2c3c(c1)c1c(n3C[C@@](C)(c3ccncc3)O[C@H]2C)CCN(C)C1 [Compound 162] | 25 |  |  | 13 | -3 | 5 |  |  |  | 
5 | Cc1cc2c3c(c1)c1c(n3C[C@](C)(c3ccncc3)O[C@H]2C)CCN(C)C1 [Compound 163] | 11 |  |  | 12 | -17 | -3 |  |  |  | 
6 | Cc1cc2c3c(c1)c1c(n3CC(C)(c3ccc(C)nc3)OC2C)CCN(C)C1 (stereo not drawn) [Compound 164] |  |  |  |  |  |  | −5 | −4 | −7 | −12
7 | Cc1cc2c3c(c1)c1c(n3CC(C)(c3ccncc3)OC(C)C2)CCN(C)C1 (stereo not drawn) [Compound 165] | 37 |  |  | 20 | 11 | -2 |  |  |  | 
